Calls of active or inactive are those of the source. The calls are words filed in the database; no cut-off is given here. Bounds are passed on as bounds.

The subject of data set [1] is HepG2. In words: Effect on GDF15 gene expression in human HepG2 cells at IC50 after 48 hrs by microarray analysis relative to control. The data set is classed as functional.
Data set [2] concerns PANC-1. The data set can be described thus: Effect on ZNF148 gene expression in human PANC1 cells at IC50 after 48 hrs by microarray analysis. The data set is classed as functional, cell-based.
In data set [3] the test system is PANC-1. In words: Effect on TBC1D26 gene expression in human PANC1 cells at IC50 after 48 hrs by microarray analysis. The data set is classed as functional, cell-based.
A short description of data set [4]: Selectivity index, ratio of IC50 for hTERT-BJ cells to IC50 for human HepG2 cells. The data set is classed as toxicity. As to conditions: hTERT-BJ cells versus HepG2 cells, read-out: Ratio IC50.
Data set [5] has as its system PANC-1. In words: Effect on JMJD2B gene expression in human PANC1 cells at IC50 after 48 hrs by microarray analysis. The data set is classed as functional, cell-based.
Data set [6] in a line: Selectivity index, ratio of IC50 for hTERT-BJ cells to IC50 for human PANC1 cells. The data set is classed as toxicity. To be noted: hTERT-BJ cells versus PANC1 cells, read-out: Ratio IC50.
Data set [7] deals with HepG2. In words: Effect on DIDO1 gene expression in human HepG2 cells at IC50 after 48 hrs by microarray analysis. The data set is classed as functional, cell-based.
Data set [8] concerns HepG2. The data set can be described thus: Effect on OKL38 gene expression in human HepG2 cells at IC50 after 48 hrs by microarray analysis. The data set is classed as functional, cell-based.
In data set [9] the test system is PANC-1. The data set can be described thus: Effect on TOP3A gene expression in human PANC1 cells at IC50 after 48 hrs by microarray analysis. The data set is classed as functional, cell-based.
Data set [10] can be described thus: Selectivity index, ratio of IC50 for hTERT-RPE1 cells to IC50 for human PANC1 cells. The data set is classed as toxicity. As to conditions: hTERT-RPE1 cells versus PANC1 cells, read-out: Ratio IC50.
Data set [11] deals with PANC-1. In words: Effect on CASP1 gene expression in human PANC1 cells at IC50 after 48 hrs by microarray analysis. The data set is classed as functional, cell-based.
In data set [12] the test system is HepG2. In words: Effect on CASP2 gene expression in human HepG2 cells at IC50 after 48 hrs by microarray analysis. The data set is classed as functional, cell-based.
In data set [13] the test system is HepG2. In words: Effect on ARK1B15 gene expression in human HepG2 cells at IC50 after 48 hrs by microarray analysis. The data set is classed as functional, cell-based.
Data set [14] deals with HepG2. In words: Effect on SRXN1 gene expression in human HepG2 cells at IC50 after 48 hrs by microarray analysis. The data set is classed as functional, cell-based.
Data set [15] concerns HepG2. The data set can be described thus: Effect on AKR1B10 gene expression in human HepG2 cells at IC50 after 48 hrs by microarray analysis. The data set is classed as functional, cell-based.
For data set [16], the system named is PANC-1. The data set can be described thus: Effect on NBPF20 gene expression in human PANC1 cells at IC50 after 48 hrs by microarray analysis. The data set is classed as functional, cell-based.

As to `O=C(N/N=C/c1cc2ccccc2nc1Cl)c1cc2cc(Br)ccc2oc1=O`, in data set [1], the “fold change (FC)” value came out at 4.56. Also, the outcome in data set [2], in data set [3], in data set [5], in data set [7], in [8] and in data set [9] was Active. Also, the outcome in data set [11], in data set [12], in data set [13], in data set [14], in data set [15] and in [16] was Active. Further, the selectivity ratio in [4] was greater than 5.31; in data set [6], greater than 9.18; in data set [10], greater than 9.18.

These data come from ChEMBL document CHEMBL4152218, “Novel hydrazide-hydrazone and amide substituted coumarin derivatives: Synthesis, cytotoxicity screening, microarray, radiolabeling and in vivo pharmacokinetic studies” (Eur J Med Chem, 2018).
